Entries after “also recorded” stand apart in the source; their conditions may differ.
Key:
[1] = system: microtubules in HT-29 cells; assay: Immunofluorescence staining of microtubule network; assay type: cell-based, human; conditions: HT-29, 32.5 nM, 12 h, anti-α-tubulin immunostaining
Method: After incubation, cells were fixed, reacted with monoclonal anti-tubulin antibody at 4 °C overnight and then reacted with fluorescein isothiocyanate (FITC) conjugated secondary antibody, DAPI was used for nuclear counter-staining, the cellular microtubules were observed under fluorescence microscope (scale bar = 20 μm).
The HT-29 cells were seeded at 1 × 10^4 per well on a 24 wellplate and grown for 24 h. […] Cells in the control group were treated with culture medium. The control and treated cells were fixed with 4% formaldehydein PBS for 30 min at −20 °C, then washed twice with PBS and permeabilized with 0.1% (v/v) Triton X-100 in PBS for 5 min. Then, the cells were blocked with 3% bovine serum albumin(BSA) in PBS for 30 min. The primary α-tubulin antibody wasdiluted (1:100) with 2% BSA in PBS and incubated overnight at 4 °C. The cells were washed with PBS to remove unbound primaryantibody and then cells were incubated with FITC-conjugated antimousesecondary antibody, diluted (1:100) with 2% BSA in PBS, for 2 h at 37 °C. The cells were washed with PBS to remove unbound secondary antibody, nucleus was stained with 4,6-diamino-2-phenolindoldihydrochloride (DAPI) and then, immunofluorescencewas detected using a fluorescence microscope (Olympus,Tokyo, Japan).

[2] = system: A549 (human lung carcinoma); assay: MTT antiproliferative assay, A549; assay type: cell-based; conditions: 72 h, mean ± SD
Method: (§1) To evaluate the antiproliferative activity, all synthesized derivatives (5a–5v and 7a–7h) were investigated for their activity in vitro against a panel of cancer cell lines including HT-29 (human colon cancer), H460 (human lung cancer), A549 (human lung carcinoma), MKN-45 (human gastric cancer) and SMMC-7721 (human liver cancer) by MTT assay. CA-4 and Crolibulin were served as positive control, and the results expressed as half-maximal inhibitory concentration (IC50). IC50 values are the concentrations that cause 50% inhibition of cancer cell growth (μM). Data represent the mean values ± standard deviation (SD) of independent experiments performed in triplicate.
(§2) Cell lines and culture conditions.The human colon carcinoma cell line HT-29, the human pulmonary carcinoma cell line A549, the human gastric carcinoma cell line MKN-45, the human breast cancer cell line MDA-MB-231 and human heptocarcinoma cellline SMMC-7721were cultured in RPMI-1640 mediumcontaining 10% FBS, 100 U/mL streptomycin and 100 U/mL penicillinat 37 °C in humidified atmosphere with 5% CO2. All of the cells were purchased from the American Type Culture Collection (ATCC, Manassas, VA).
(§3) The antiproliferative activities in vitro of Crolibulin and all the target compounds were determined by an MTT assay. Briefly, cells were seeded into 96-well plates at a density of 1–3 × 10^4/well (depends on the cell growth rate). 24 h later, triplicate wells were treated with media and the agents. After 72 h ofincubation at 37 °C in 5% CO2, the drug containing medium wasremoved and replaced by […] of fresh medium with 5 mg/mLMTT solution. After 4 h of incubation, the medium with MTT was removed, and […] of DMSO was added to each well. The plates were gently agitated until the purple formazan crystals were dissolved, and the OD490 was determinedusing a microplate reader (MK3, Thermo, Germany). The data were calculated and plotted as the percent viability compared to the control. The 50% inhibitory concentration (IC50) was defined as theconcentration that reduced the absorbance of the untreated wells by 50% of the vehicle in the MTT assay.

[3] = system: MKN-45 (human gastric cancer); assay: MTT antiproliferative assay, MKN-45; assay type: cell-based; conditions: 72 h, mean ± SD, read-out: IC50 (μM) ±SD MKN45
Method: as §1, §2, §3

[4] = system: HT-29 (human colon cancer); assay: MTT antiproliferative assay, HT-29; assay type: cell-based; conditions: Homo sapiens, HT-29; MTT, 72 h, mean ± SD; read-out: IC50 (μM) ±SD HT29
Method: as §1, §2, §3

[5] = system: human fetal hepatocyte line L02; assay: MTT assay on normal cell line L02; assay type: cell-based; conditions: non-cancer cell line
Method: The drug candidate potency depends not only on its cytotoxicity in malignant cells, but also on its relative lack of toxicity toward normal cells.
as §3

tubulin, colchicine site = assay: Colchicine competition (competitive tubulin-binding) assay; conditions: 0, 1.6, 5 and 15 μM, 1 h at 37 °C, then 5 μM colchicine
Method: Figure 6 Colchicine competition assay. […] The fluorescence was measured by Hitachi F-2500 spectrofluorometer.
Then colchicine was added to a final concentration of 5 μM[43]. Fluorescence was determined using a Hitachi F-2500 spectrofluorometer (Tokyo, Japan) at excitation wavelengths of 365 nm and emission wavelengths of 435 nm. Blank values (buffer alone) as background were subtracted from all samples. […] Taxol, not binding in the colchicine-site of tubulin, was added as a negative control.

HT-29 cells = assay: Cell cycle phase distribution by flow cytometry; assay type: cell-based, human; conditions: 24 h
Method: The structural similarities between the target compounds (5a–5v and 7a–7h) with CA-4 and Crolibulin, as well as the promising cytotoxic activity led us to hypothesize that these compounds exert their antiproliferative properties through inhibition of tubulin dynamics, thus inducing mitotic arrest in cancer cells. […] Controls were treated with drug vehicle DMSO. […] And this effect is characteristic of antimitotic agents disrupting microtubule assembly.
Data are expressed as the mean ± SEM.
For flow cytometric analysis of DNA content, cells inexponential growth were treated with compound for 24 h[41]. The cells treated with compoundwere collected, washed twice with PBS, and then fixed with 75% alcohol overnight. Then, the cells were washed with PBS and resuspended in 100 μL of PBS, 200 mg/mL RNase wasadded for 30 min to eliminate the interference of RNA, and 20 mL/L propidium iodide (PI; Sigma) was added for 30 min.Then, the cells were washed, and the DNA content wasdetected by flow cytometer (BD Accuri C6).

H460 (human lung cancer) = assay: MTT antiproliferative assay, H460; assay type: cell-based; conditions: Homo sapiens, NCI-H460, 72 h, MTT, 72 h, mean ± SD
Method: as §1, §3

SMILES	effect on microtubule network [1]	IC50 [2]	IC50 [3]	IC50 [4]	effect on normal cell L02 [5]	melting point	effect on intrinsic fluorescence of colchicine-tubulin complex (tubulin, colchicine site)	percent of cells in G1 phase (HT-29 cells; HT-29, 20 nM)	percent of cells in G1 phase (HT-29 cells; HT-29, 200 nM)	percent of cells in G2 (G2/M) phase (HT-29 cells; HT-29, 200 nM)	percent of cells in G1 phase (HT-29 cells; HT-29, 1000 nM)	percent of cells in G2 (G2/M) phase (HT-29 cells; HT-29, 1000 nM)	IC50 (H460 (human lung cancer))
N#Cc1c(-c2ccc(F)cc2Cl)cc(-c2c[nH]c3ccccc23)n2ccnc12 [5k, 7-(2-chloro-4-fluorophenyl)-5-(1H-indol-3-yl)imidazo[1,2-a]pyridine-8-carbonitrile]	cellular microtubule depolymerization	0.57 ± 0.08 µM	0.14 ± 0.03 µM	0.02 ± 0.001 µM	negligible effects; also recorded: minimal	307.9 to 317.3 °C	decreased the intrinsic colchicine fluorescence in a dose-dependent manner	62.84%	65.76%	14.21%	24.62%	64.07%	0.05 ± 0.008 µM
CC(=O)O[C@H]1C(=O)[C@@]2(C)[C@H]([C@H](OC(=O)c3ccccc3)[C@]3(O)C[C@H](OC(=O)[C@H](O)[C@@H](NC(=O)c4ccccc4)c4ccccc4)C(C)=C1C3(C)C)[C@]1(OC(C)=O)CO[C@@H]1C[C@@H]2O [Taxol, reference compound]	–	–	–	–	–	–	scarcely effect	–	–	–	–	–	–

Reference: PMC5327470, “Discovery and Optimization of Novel 5-Indolyl-7-arylimidazo[1,2-a]pyridine-8-carbonitrile Derivatives as Potent Antitubulin Agents Targeting Colchicine-binding Site” (Scientific Reports, 2017)
